One test deals with Gibberella zeae. The test is classed as cell-based. The settings on record: 0.3 ppm; in vitro, PDB, 3 days of incubation.
For test [1], the system named is Botrytis cinerea. Nature of the test: Botrytis cinerea test (in vitro)/microtitre plates. The test is classed as cell-based. The settings on record: 3 ppm, PDB, 7 days of incubation.
A further test deals with Puccinia recondita. Nature of the test: Puccinia recondita test (wheat)/curative. Conditions: application rate 62.5 g/ha, curative, evaluation 8 days after inoculation.
In another test the test system is Pyrenophora teres. In words: Pyrenophora teres test (barley)/curative. Conditions: in Hordeum vulgare, 288 h, read-out: Efficacy in % found.
In the next test the test system is Pyricularia oryzae. The test is classed as cell-based. The settings on record: 3 ppm; in vitro, PDB, 3 days of incubation.
For a further test, the system named is Rhizoctonia solani. Nature of the test: Rhizoctonia solani test (in vitro)/microtitre plates. The settings on record: PDB, 5 days of incubation. The test is classed as cell-based. The method, then:
Rhizoctonia solani Test (In Vitro)/Microtitre Plates The microtest is carried out in microtitre plates using potato dextrose broth (PDB) as liquid test medium. The active compounds are used as technical grade a.i., dissolved in acetone. For inoculation, a mycelium suspension of Rhizoctonia solani is used. After 5 days of incubation in the dark and with shaking (10 Hz) for each filled cavity of the microtitre plates, the light transmittance is determined with the aid of a spectrophotometer.

Test [2] deals with Erysiphe graminis f.sp. hordei. Nature of the test: Erysiphe test (barley)/protective. The test is classed as in vivo. Conditions: application rate 12.5 g/ha, protective, evaluation 6 days after inoculation.
Another test has as its system Plasmopara viticola. In words: Plasmopara viticola test (grapevine)/protective. The test is classed as in vivo. The settings on record: protective, 6 days after inoculation.
Another test concerns Sphaerotheca fuliginea. In words: Sphaerotheca fuliginea test (cucumber)/protective. The test is classed as in vivo. The settings on record: Podosphaera fuliginea, 168 h, protective, 7 days after inoculation, read-out: Efficacy in % found.
For another test, the system named is Alternaria solani. In words: Alternaria solani test (tomato)/protective. The test is classed as in vivo. The settings on record: protective, 3 days after inoculation.
Test [3] deals with Erysiphe graminis f.sp. hordei. Nature of the test: Erysiphe test (barley)/curative. Conditions: application rate 25 g/ha, curative, evaluation 6 days after inoculation. The test is classed as in vivo.
Test [4] relates to Botrytis cinerea. In words: Botrytis cinerea test (bean)/protective. The settings on record: protective, 2 days after inoculation.
Description: After the spray coating has dried on, 2 small pieces of agar colonized by Botrytis cinerea are placed onto each leaf. The inoculated plants are placed in a darkened chamber at about 20° C. and 100% relative atmospheric humidity.
The size of the infected areas on the leaves is evaluated 2 days after the inoculation.

Description for Puccinia recondita: Puccinia recondita Test (Wheat)/Curative • Solvent: 50 parts by weight of N,N-dimethylacetamide • Emulsifier: 1 part by weight of alkylaryl polyglycol ether
To test for curative activity, young plants are sprayed with a conidia suspension of Puccinia recondita. The plants remain in an incubation cabinet at 20° C. and 100% relative atmospheric humidity for 48 hours.
The plants are placed in a greenhouse at a temperature of about 20° C. and a relative atmospheric humidity of about 80% to promote the development of rust pustules.
Evaluation is carried out 8 days after the inoculation.
Description for Pyrenophora teres: Pyrenophora teres Test (Barley)/Curative • Solvent: 50 parts by weight of N,N-dimethylacetamide • Emulsifier: 1 part by weight of alkylaryl polyglycol ether
To test for curative activity, young plants are sprayed with a conidia suspension of Pyrenophora teres. The plants remain in an incubation cabinet at 20° C. and 100% relative atmospheric humidity for 48 hours.
The plants are placed in a greenhouse at a temperature of about 20° C. and a relative atmospheric humidity of about 80%.
Evaluation is carried out 12 days after the inoculation.

Regarding `CSC1=N[C@@](C)(c2ccccc2)C(=O)N1Nc1ccccc1` [(19-3) fenamidone], the “Efficacy in % found” value in the test with Gibberella zeae amounted to 15%.
For `COC(=O)Nc1nc2ccccc2[nH]1` [(10-3) carbendazim, carbendazim], the “Efficacy in % found” value with Botrytis cinerea [1] amounted to 86%.
For the compound `Cc1nn(C)c(F)c1C(=O)Nc1ccccc1C(C)CC(C)C` (centres unmarked) [(1-2), N-[2-(1,3-dimethylbutyl)phenyl]-5-fluoro-1,3-dimethyl-1H-pyrazole-4-carboxamide], the “Efficacy in % found” value came to 94% in the test with Puccinia recondita; 17% in the test with Pyricularia oryzae; 35% in the test with Botrytis cinerea [1]; 30% in the test with Rhizoctonia solani (0.003 ppm); 40% in the test with Rhizoctonia solani (1 ppm); 0% in test [2]. Besides, the “Efficacy in % found” value in the test on Gibberella zeae was 39%; in the test with Plasmopara viticola (application rate 25 g/ha), 0%; with Plasmopara viticola (application rate 50 g/ha), 0%; with Alternaria solani (application rate 1 g/ha) it was 3%; with Alternaria solani (application rate 2 g/ha), 23%; in [3], 0%. Further, the “Efficacy in % found” value with Botrytis cinerea [4] (application rate 5 g/ha) worked out at 33%; with Botrytis cinerea [4] (application rate 10 g/ha), 64%; with Botrytis cinerea [4] (application rate 20 g/ha) it was 66%. Further, the pest or weed control at 25 g/ha in the test with Pyrenophora teres worked out at 29%. The pest or weed control at 62.5 g/ha in the test with Pyrenophora teres worked out at 71%. Besides, the pest or weed control at 0.5 g/ha in the test with Sphaerotheca fuliginea (application rate 0.5 g/ha) is 0%. The pest or weed control at 1 g/ha with Sphaerotheca fuliginea (application rate 1 g/ha) stood at 18%. Moreover, the pest or weed control at 2 g/ha with Sphaerotheca fuliginea (application rate 2 g/ha) came out at 30%. For the same compound, the pest or weed control at 4 g/ha in the test on Sphaerotheca fuliginea (application rate 4 g/ha) came out at 20%.
